According to article PMC12040169 (PLOS Biology, 2025):

Test: in vitro
Conditions: human, hela cells, % viability
Work on `CCN1CCN(c2ccc(Nc3ccnc4cc5ccccc5cc34)cc2)CC1` [CBK261130] yielded a viability at 28.5 h, 10 µM of 79.8%.
`COc1ccc(N(CCN2CCCCC2)S(=O)(=O)c2ccc(C)cc2)cc1` [CBK261131] gave a viability at 28.5 h, 10 µM of 98.7%.
Work on `O=S(=O)(NCCN1CCCC1)c1cccc2nsnc12` [CBK261132] yielded a viability at 28.5 h, 10 µM of 97.3%.
Work on `O=C1c2ccccc2C(=O)N1CC1c2ccccc2CCN1S(=O)(=O)c1cccc2nsnc12` (stereo not shown) [CBK261133] yielded a viability at 28.5 h, 10 µM of 108%.
In the case of `O=C1CN(S(=O)(=O)CCOc2ccccc2)CC(=O)N1CCc1ccccc1` [CBK261134], the viability at 28.5 h, 10 µM was 92.8%.
In the case of `O=S(=O)(NCc1nc2ccccc2[nH]1)c1ccc(Cl)c(Cl)c1` [CBK261137], the viability at 28.5 h, 10 µM was 86.2%.
In the case of `N#CCCN(CCc1ccccc1)S(=O)(=O)c1cccc2nsnc12` [CBK261138], the viability at 28.5 h, 10 µM was 104%.
For `Cc1ccc(S(=O)(=O)NCC(=O)O)c2nsnc12` [CBK261140], the viability at 28.5 h, 10 µM was 93.1%.
`Brc1cccc(/C=N/c2ccc3nc(-c4ccccc4)[nH]c3c2)c1` [CBK261143] showed a viability at 28.5 h, 10 µM of 109%.
`NNC(=O)C(NC(=O)c1ccccc1)c1n[nH]c(=O)c2ccccc12` (stereo not shown) [CBK261144] gave a viability at 28.5 h, 10 µM of 92.9%.
Work on `Nc1ccc(Cc2ccc(N)c(O)c2)cc1O` [CBK261149] yielded a viability at 28.5 h, 10 µM of 100%.
In the case of `N#Cc1ccc(Oc2ccc3c(c2)-c2cc(Oc4ccc(C#N)c(C#N)c4)ccc2S3(=O)=O)cc1C#N` [CBK261151], the viability at 28.5 h, 10 µM was 92.4%.
In the case of `Nc1ccc(-c2nc(-c3ccccc3)c3cc(-c4ccc5nc(-c6ccc(N)cc6)nc(-c6ccccc6)c5c4)ccc3n2)cc1` [CBK261152], the viability at 28.5 h, 10 µM was 107%.
`Nc1ccc(Cc2ccc(N)c(C(=O)O)c2)cc1C(=O)O` [CBK261153] showed a viability at 28.5 h, 10 µM of 92.3%.
`Cc1ccc(S(=O)(=O)Nc2ccc(C3(c4ccc(NS(=O)(=O)c5ccc(C)cc5)cc4)c4ccccc4-c4ccccc43)cc2)cc1` [CBK261154] showed a viability at 28.5 h, 10 µM of 102%.
Work on `N#Cc1ccc(Oc2cccc(/N=C/c3ccc(/C=N/c4cccc(Oc5ccc(C#N)cc5)c4)cc3)c2)cc1` [CBK261157] yielded a viability at 28.5 h, 10 µM of 93.7%.
With `OB(O)c1ccc(Oc2ccc(B(O)O)cc2)cc1` [CBK261159] the viability at 28.5 h, 10 µM was 102%.
In the case of `O=C1c2ccccc2C(c2ccc(NC(=O)c3cccc4ccccc34)cc2)(c2ccc(NC(=O)c3cccc4ccccc34)cc2)c2ccccc21` [CBK261162], the viability at 28.5 h, 10 µM was 103%.
Compound `O=C(Nc1ccc(C2(c3ccc(NC(=O)c4cccc5ccccc45)cc3)c3ccccc3-c3ccccc32)cc1)c1cccc2ccccc12` [CBK261163] has a viability at 28.5 h, 10 µM of 102%.
Compound `O=C(Nc1ccc(-c2c3ccccc3c(-c3ccc(NC(=O)c4cccc5ccccc45)cc3)c3ccccc23)cc1)c1cccc2ccccc12` [CBK261164] has a viability at 28.5 h, 10 µM of 93.6%.
For `CC(=O)Nc1ccc(-c2nc3cc(-c4nc5ccc(NC(C)=O)cc5[nH]4)ccc3[nH]2)cc1` [CBK261165], the viability at 28.5 h, 10 µM was 91.2%.
With `O=C(Nc1ccccc1C(=O)O)c1cccc(C(=O)Nc2ccccc2C(=O)O)c1` [CBK261166] the viability at 28.5 h, 10 µM was 105%.
`NC(=O)c1ccccc1NC(=O)c1ccc(C(=O)Nc2ccccc2C(N)=O)cc1` [CBK261167] showed a viability at 28.5 h, 10 µM of 106%.
With `NC(=O)c1ccccc1NC(=O)c1ccc2ccccc2c1` [CBK261171] the viability at 28.5 h, 10 µM was 90.8%.
With `COC(=O)CCCNS(=O)(=O)c1ccc([N+](=O)[O-])cc1` [CBK261172] the viability at 28.5 h, 10 µM was 109%.
In the case of `CCOC(=O)C(C(C)=O)(N1CCOCC1)N1CCOCC1` [CBK261173], the viability at 28.5 h, 10 µM was 90.2%.
In the case of `Cc1ccc2nc(C(=O)O)cc(C(=O)O)c2c1` [CBK261174], the viability at 28.5 h, 10 µM was 91.6%.
For `C/C(=N\NC(=O)Cc1ccc([N+](=O)[O-])cc1[N+](=O)[O-])c1ccccc1O` [CBK261175], the viability at 28.5 h, 10 µM was 88.8%.
Work on `O=C(O)c1ccc2c(c1)C(=O)N(c1cccc(/C=C/C(=O)c3cccc(N4C(=O)c5ccc(C(=O)O)cc5C4=O)c3)c1)C2=O` [CBK261178] yielded a viability at 28.5 h, 10 µM of 89.8%.
With `O=C(O)c1ccc(Oc2cccc([N+](=O)[O-])c2)cc1C(=O)O` [CBK261179] the viability at 28.5 h, 10 µM was 110%.
For `Nc1cccc(Oc2ccc(C(=O)O)c(C(=O)O)c2)c1` [CBK261180], the viability at 28.5 h, 10 µM was 89.4%.
`O=C(O)c1cc(NC(=O)c2ccc(Oc3ccc([N+](=O)[O-])cc3)cc2)cc(C(=O)O)c1` [CBK261188] gave a viability at 28.5 h, 10 µM of 88.6%.
Work on `O=C(O)c1ccc(S(=O)(=O)c2ccc3c(c2)C(=O)N(c2nccs2)C3=O)cc1` [CBK261189] yielded a viability at 28.5 h, 10 µM of 90.1%.
`O=C1c2ccc(Oc3cccc([N+](=O)[O-])c3)cc2C(=O)N1c1ccccn1` [CBK261190] gave a viability at 28.5 h, 10 µM of 95.8%.
Work on `O=C(O)c1ccc2c(c1)C(=O)N(c1ccc(-c3ccnc(-c4ccc(N5C(=O)c6ccc(C(=O)O)cc6C5=O)cc4)n3)cc1)C2=O` [CBK261192] yielded a viability at 28.5 h, 10 µM of 104%.
With `O=C(O)c1cc(C(=O)O)cc(N2C(=O)C3C4C=CC(C4)C3C2=O)c1` (stereo not shown) [CBK261193] the viability at 28.5 h, 10 µM was 97.5%.
`O=C(c1ccc2c(c1)C(=O)N(c1ccncc1)C2=O)c1ccc2c(c1)C(=O)N(c1ccncc1)C2=O` [CBK261194] showed a viability at 28.5 h, 10 µM of 88.5%.
`O=C(O)c1ccc2c(c1)C(=O)N(c1ccc(C3(c4ccc(N5C(=O)c6ccc(C(=O)O)cc6C5=O)cc4)c4ccccc4-c4ccccc43)cc1)C2=O` [CBK261195] showed a viability at 28.5 h, 10 µM of 92.2%.
`O=C(Nc1ccccc1)c1ccc2c(c1)C(=O)N(c1cccc(N3C(=O)c4ccc(C(=O)Nc5ccccc5)cc4C3=O)n1)C2=O` [CBK261197] showed a viability at 28.5 h, 10 µM of 91.5%.
`Cc1ccc(NC(=O)c2ccc3c(c2)C(=O)N(c2cccc(N4C(=O)c5ccc(C(=O)Nc6ccc(C)cc6)cc5C4=O)n2)C3=O)cc1` [CBK261198] showed a viability at 28.5 h, 10 µM of 90.8%.
`O=C(O)c1ccc(Oc2ccc3c(c2)C(=O)N(c2nccs2)C3=O)cc1` [CBK261200] showed a viability at 28.5 h, 10 µM of 101%.
`O=C(Nc1cccc(I)c1)c1ccc(Oc2ccc(C(=O)Nc3cccc(I)c3)cc2)cc1` [CBK261201] showed a viability at 28.5 h, 10 µM of 92.6%.
`O=C(CSCc1cccc(Br)c1)Nc1cccc2cccnc12` [CBK261204] showed a viability at 28.5 h, 10 µM of 101%.
For `COc1ccc(/C(C)=N/NC(=O)CSCc2cccc(Br)c2)cc1` [CBK261205], the viability at 28.5 h, 10 µM was 81.4%.
In the case of `Cc1ccc(C(C)C)cc1OCC(=O)N/N=C\c1cc([N+](=O)[O-])ccc1O` [CBK261206], the viability at 28.5 h, 10 µM was 92.6%.
`NNC(=O)C(Oc1ccccc1)Oc1ccccc1` [CBK261210] showed a viability at 28.5 h, 10 µM of 100%.
With `CC(/C=C/c1ccccc1)=N\NC(=O)C(C)Oc1ccc(Br)cc1` (stereo not shown) [CBK261212] the viability at 28.5 h, 10 µM was 99.7%.
Work on `NNC(=O)CCc1ccccc1O` [CBK261214] yielded a viability at 28.5 h, 10 µM of 97.2%.
Work on `Ic1ccc2c3ccc(I)cc3c3[nH]c(-c4ccccc4)nc3c2c1` [CBK261218] yielded a viability at 28.5 h, 10 µM of 92.9%.
With `O=C(O)c1nc(/N=C/c2ccc(C#Cc3ccccc3)cc2)n[nH]1` [CBK261219] the viability at 28.5 h, 10 µM was 90.3%.
With `O=C1C(c2ccccc2)=C(c2ccccc2)C(c2ccc(C3=C(c4ccccc4)C(=O)C(c4ccccc4)=C3c3ccccc3)cc2)=C1c1ccccc1` [CBK261220] the viability at 28.5 h, 10 µM was 87.4%.
`COc1ccc(/C=N/c2cc(S(=O)(=O)c3ccc(O)c(/N=C/c4ccc(OC)c(O)c4)c3)ccc2O)cc1O` [CBK261223] gave a viability at 28.5 h, 10 µM of 92.3%.
In the case of `COc1cc(/C=N/c2cccc3c(/N=C/c4ccc(O)c(OC)c4)cccc23)ccc1O` [CBK261224], the viability at 28.5 h, 10 µM was 85.8%.
With `Cc1[nH]c2ccccc2c1/C=N/c1ccc(/N=C/c2c(C)[nH]c3ccccc23)cc1` [CBK261226] the viability at 28.5 h, 10 µM was 83.4%.
For `Cc1[nH]c2ccccc2c1/C=N/c1cccc2c(/N=C/c3c(C)[nH]c4ccccc34)cccc12` [CBK261227], the viability at 28.5 h, 10 µM was 97.6%.
For `CCn1c2ccccc2c2cc(/C=N/c3cc(S(=O)(=O)c4ccc(O)c(/N=C/c5ccc6c(c5)c5ccccc5n6CC)c4)ccc3O)ccc21` [CBK261229], the viability at 28.5 h, 10 µM was 76.5%.
With `O=C(/C=C\c1cccs1)NC(=S)Nc1ccc([N+](=O)[O-])cc1O` [CBK261231] the viability at 28.5 h, 10 µM was 89.4%.
In the case of `COc1ccc(OCC(=O)N/N=C\c2c(OC)ccc3ccccc23)c(Br)c1` [CBK261235], the viability at 28.5 h, 10 µM was 86.3%.
`Cc1cccc(NCC(=O)N/N=C/c2cc3ccccc3nc2Cl)c1` [CBK261236] showed a viability at 28.5 h, 10 µM of 90%.
`O=S1(=O)c2cc(/N=C/c3c(O)ccc4ccccc34)ccc2-c2ccc(/N=C/c3c(O)ccc4ccccc34)cc21` [CBK261240] showed a viability at 28.5 h, 10 µM of 84.7%.
Compound `c1ccc2sc(CCCCc3nc4ccccc4s3)nc2c1` [CBK261248] has a viability at 28.5 h, 10 µM of 92.5%.
`O=C(O)C1CCCN1S(=O)(=O)c1ccc(Cl)cc1` (stereo not shown) [CBK261249] showed a viability at 28.5 h, 10 µM of 88.1%.
For `CC(=O)N/N=C(\C)c1ccc(-n2cnnn2)cc1` [CBK261252], the viability at 28.5 h, 10 µM was 95.9%.
In the case of `O=C(O)c1ccc(Sc2ccc(S(=O)(=O)c3ccc(C(=O)O)c(C(=O)O)c3)cc2)cc1` [CBK261253], the viability at 28.5 h, 10 µM was 106%.
`O=C(O)CSc1ccc(Oc2ccc(SCC(=O)O)cc2)cc1` [CBK261254] showed a viability at 28.5 h, 10 µM of 92.6%.
`O=C(CSc1cccc2c(SCC(=O)c3ccccc3)cccc12)c1ccccc1` [CBK261255] gave a viability at 28.5 h, 10 µM of 87.9%.
In the case of `O=C(CCS(=O)(=O)c1cc(Cl)ccc1Cl)OCC(=O)c1ccccc1` [CBK261256], the viability at 28.5 h, 10 µM was 90.1%.
Work on `O=C(O)c1cccc(NS(=O)(=O)c2cccc(S(=O)(=O)c3ccc(Cl)c(Cl)c3)c2)c1` [CBK261259] yielded a viability at 28.5 h, 10 µM of 102%.
For `O=C1CC(N2CCN(c3ccccc3)CC2)C(=O)N1c1cccc2ccccc12` (stereo not shown) [CBK261263], the viability at 28.5 h, 10 µM was 92.8%.
Compound `Cc1ccccc1-n1nc(-c2ccc(NC(=O)c3ccccc3)cc2)cc1NC(=O)c1ccccc1` [CBK261264] has a viability at 28.5 h, 10 µM of 82.2%.
In the case of `Nc1cc(N)nc(SCc2ccccc2)n1` [CBK261266], the viability at 28.5 h, 10 µM was 96.1%.
In the case of `N#Cc1c(N)nc(SCC(=O)O)c(C#N)c1-c1ccc(O)cc1` [CBK261270], the viability at 28.5 h, 10 µM was 98%.
`O=C(O)c1cnc(-c2ccccc2)nc1` [CBK261272] showed a viability at 28.5 h, 10 µM of 93.2%.
`Brc1cnc(OCc2ccccc2)nc1OCc1ccccc1` [CBK261274] showed a viability at 28.5 h, 10 µM of 101%.
In the case of `Oc1ccccc1-c1cc(-c2ccccc2)c2c(ccc3ncccc32)n1` [CBK261276], the viability at 28.5 h, 10 µM was 91.9%.
Work on `CN(C)Cc1ccccc1C(O)c1ccccc1` (stereo not shown) [CBK261277] yielded a viability at 28.5 h, 10 µM of 94.4%.
With `CCC(C)NC(=O)C(Cc1ccc([N+](=O)[O-])cc1)N1C(=O)c2ccccc2C1=O` (stereo not shown) [CBK261278] the viability at 28.5 h, 10 µM was 105%.
With `O=C(NCc1ccccc1)C(Cc1ccc([N+](=O)[O-])cc1)N1C(=O)c2ccccc2C1=O` (stereo not shown) [CBK261279] the viability at 28.5 h, 10 µM was 95.9%.

Same assay, conditions: human, hela cells, % viability, bulk resorufin, single well
Work on `O=C(Nc1ccc(NC(=O)c2cccc([N+](=O)[O-])c2)c(Cl)c1)c1cccc([N+](=O)[O-])c1` [CBK261196] yielded a viability at 28.5 h, 10 µM of 105%.
